# In patent US20090136521A1, “Method for Selectively Depleting Hypoxic Cells” (Genetix Pharmaceuticals , Inc., priority 2005, published 2009):
# “Also recorded” adds a separate entry of the source.
# Key:
# [1] = test system: bone marrow; assay: Hoechst dye perfusion gradient in bone marrow after 5-FU; format: in vivo, mice; conditions: 1 to 6 days after 5-FU; Hoechst dye i.v. 0.8 mg at 5 and 10 min; FIG. 12
# Experimental: At different times after 5-FU, Hoechst dye was injected i.v. (0.8 mg at 5 and 10 min) and the bone marrow analyzed for intensity of Hoechst uptake. The plotted graph gives the red fluorescence intensity for cells at the lower 1% level to show how the Hoechst gradient is shortened at 1 to 6 days after 5-FU and provides evidence for improved oxygenation of the cells that remain after treatment.
# (§1) Mice: C57BL/6J male mice (with Ly 5.2 marker) obtained from Jackson Laboratories were used for most of the experiments proposed. Mice were maintained in a specific pathogen-free microisolator environment. […] The cellularity of bone marrow and thymus was measured by counting total live cells (using trypan blue) and total WBCs (using crystal violet in 3% acetic acid) on a hemocytometer. […] Briefly, C57BL/6J mice were injected i.v. via the retro-orbital sinus under isoflurane anesthesia with two doses (0.8 mg/mouse) of Hoechst dye (Sigma) at 10 and 5 min before bone marrow harvesting, a period determined to be insufficient for active dye exclusion in vitro. […] The dual emission wavelength of Hoechst fluorescence in bone marrow and thymus was assessed on a logarithmic scale using flow cytometry with exclusion of propidium iodide positive cells. […] The fluorescent intensity for staining was measured using flow cytometry. […]
# [2] = test system: Cobblestone Area Forming Cell (CAFC) subsets in bone marrow; assay: Cobblestone Area Forming Cell (CAFC) content of bone marrow after in vivo treatment; parameters: species or system mice
# Experimental: FIG. 8 is a depiction of CAFC content per hind limb expressed as percent of untreated (saline injected) control following 4×30 mg/kg tirapazamine (TPZ) 2×10 mg/kg Busulfex (BX) or 4 Gy gamma-irradiation. Data represents the mean of bone marrow cell samples pooled from 3-4 individual mice with 95% confidence limits.
# 5-FU was administered i.p. to B6 recipients at a single dose of 150 mg/kg. At 2 days, the femoral and tibial bone marrow was harvested, pooled from mice and plated for estimate of CAFC content per hind limb. Error bars represent 95% confidence intervals.
# Mice: C57BL/6J male mice (with Ly 5.2 marker) obtained from Jackson Laboratories were used for most of the experiments proposed. Mice were maintained in a specific pathogen-free microisolator environment. For some in vivo repopulation assays, B6.5JL-Ptprc^a Pep3^b/BoyJ congenic mice (with Ly5.1 marker) obtained from Jackson Laboratories were used as donors. Bone marrow, thymus, harvest: Bone marrow cells were harvested from mice by crushing the tibias and femurs from the hind limbs in HBSS containing 2% FBS and […] HEPES buffer (HBSS+). Bone marrow cells, thymocytes and splenocytes were passed through 21 gauge needles to get single cell suspensions. The cellularity of bone marrow and thymus was measured by counting total live cells (using trypan blue) and total WBCs (using crystal violet in 3% acetic acid) on a hemocytometer. Measurement of Hoechst perfusion in vivo in mice: The Hoechst dye perfusion in mice was done according to methods previously described in the literature (Durand et al., 1990; Olive et al., 2000; Olive et al., 2002). Briefly, C57BL/6J mice were injected i.v. via the retro-orbital sinus under isoflurane anesthesia with two doses (0.8 mg/mouse) of Hoechst dye (Sigma) at 10 and 5 min before bone marrow harvesting, a period determined to be insufficient for active dye exclusion in vitro. Tibias and femurs were placed immediately on ice, crushed in a pre-cooled mortar and pestle, filtered and suspended in cold HBSS+. Thymus was harvested and thymocyte cell suspension made by passing the cells through 21 gauge needle. The dual emission wavelength of Hoechst fluorescence in bone marrow and thymus was assessed on a logarithmic scale using flow cytometry with exclusion of propidium iodide positive cells. Pimonidazole binding: The detection of hypoxic cells in bone marrow and thymus was done by pimonidazole binding using methods described by Olive et al. (Olive et al., 2000; Olive et al., 2002). Briefly, the mice were injected i.p. with pimonudazole hydrochloride (Chemicon International) at 120 mg/kg dose and the bone marrow as well as thymus were harvested 3 hrs post-injection. […] The fluorescent intensity for staining was measured using flow cytometry. […]
# [3] = test system: SP cells in bone marrow; assay: Side Population (SP) cells in bone marrow after 5-FU; format: in vivo, mice; conditions: different times after 5-FU; FIG. 13
# Experimental: At different times after 5-FU, bone marrow was harvested, nucleated cells counted and incubated in Hoechst dye for subsequent analysis on efficient (lower gate) and poor (higher gate) dye effluxing cells in the SP tail. While the percent of SP cells appeared to increase from day 1 to day 4, the cell yield continued to decrease and thus the actual number of SP cells per hind limb remained low.
# as §1
# [4] = test system: HSCs; conditions: single dose; Harrison and Lerner, 1991; cited from earlier work
Structure (SMILES),"Hoechst gradient in bone marrow (red fluorescence intensity, lower 1% level) [1]","primitive late-forming CAFCs, bone marrow content ([2]; 5-FU single dose 150 mg/kg i.p., bone marrow at 2 days, FIG. 11)","early-forming CAFC subsets, bone marrow content ([2]; 5-FU single dose 150 mg/kg i.p., bone marrow at 2 days, FIG. 11, 150 mg/kg)",number of functional HSCs ([2]; after 5-FU),percent and overall marrow content of SP cells [3],sensitivity of bone marrow HSCs capable of long-term engraftment in irradiated recipients [4],"depletion of late- versus early-forming CAFC subsets (CAFC content per hind limb) ([2]; TPZ 30 mg/kg i.p. daily over 4 days, bone marrow harvested 24 hours after last treatment, FIG. 8)"
"O=c1[nH]cc(F)c(=O)[nH]1 [5-FU, 5-fluorouracil]",considerably shortened,remain normal,selectively depletes early-forming CAFCs; also recorded: marked depletion,remains unaffected,decreased; also recorded: dramatic decrease,resistant,
"Nc1n[n+]([O-])c2ccccc2[n+]1[O-] [Tirapazamine, 1,2,4-benzotriazin-3-amine 1,4-dioxide]",,,,,,,higher depletion of late-versus early-forming CAFC subsets
